Experimental data reported in US20230293526A1, “METHOD FOR TREATING CANCER WITH A REVERSE TRANSCRIPTASE INHIBITOR” (PrimeFour Therapeutics, Inc., priority 2020, published 2023).
Where two headings read alike, the source gives them in different places.

System: human LINE-1
Assay: Human LINE-1 (L1) retrotransposition dual-luciferase reporter assay in HeLa cells
Assay type: cell-based
Details: read-out: Human LINE-1 IC50 (Human L1 activity inhibition)
Protocol: Representative compounds were tested for inhibition of retrotransposition activity of human LINE-1 (L1) retrotransposition reporter assay in HeLa cells according to the following procedure.
Human Cervical Adenocarcinoma Cells (HeLa) were cultured in Dulbecco's Modified Eagle's Medium (DMEM) containing 4500 mg/L glucose, L-glutamine, sodium pyruvate and sodium bicarbonate, supplemented with 10% of heat inactivated fetal bovine serum (FBS). Cells were grown at 37° C. in an atmosphere of 5% CO2. The dual luciferase-encoding plasmid pYX017 was provided by Prof Wenfeng An (Xie, et al., 2011, Nucleic Acids Res).
The reporter assay was performed in 96-well white, optical bottom plates (Thermo Fisher, 165306). 24 hours prior to transfection, HeLa cells were seeded in a density of 2,500 cells per well, in 50 μL of DMEM, 10% FBS media volume. Cells were incubated at 37° C. in an atmosphere of 5% CO2. Seeding was optimized to achieve approximately 30% cell confluency on the day of transfection. A transfection mix was prepared by combining transfection reagent FuGENE® HD (Promega, E2311) and plasmid DNA (100 ng per well) in a 3:1 ratio, in OpiMEM media (Thermo Fisher, 31985062). Next, 5 μL of the transfection mix was combined with 20 μL of DMEM, 10% FBS media, and 25 μL of this mix was added into each well of an assay plate. In each assay plate one column remained untransfected to serve as a blank luminescence signal.
Serial dilution of test compounds was performed in DMSO and transferred to medium. Next, 25 μL of media-diluted compounds series were transferred to an assay plate containing cells and transfection media. The final concentration of DMSO in treated wells was 0.2%. Serial dilutions of compounds were added to an assay plate immediately after transfection. Compounds were tested in triplicates. The assay plate was then incubated with transfection reagent and compounds at 37° C. in an atmosphere of 5% CO2 for 72 hours.
Luciferase reporter activity was quantified with the Dual-Luciferase® Reporter Assay System (Promega) following the manufacturer's manual, with a passive lysis buffer volume increased to 30 μL and lysis incubation time increased to 20 min at room temperature with gentle shaking, to ensure complete cell lysis. Luminescence was measured using a SpectraMax i3×Multi-Mode Microplate Reader, with integration times of 100 ms and 10 ms applied to measure FLuc and RLuc signals, respectively. Relative LNE-1 activity was calculated as Firefly signal/Renilla signal*10,000. In order to determine IC50 values for each compound, dose response data were fit to a logistic using non-linear regression.

Row | SMILES | IC50 (Homo sapiens, HeLa, 72 h) [nM] | also measured
1 | CC(C)OC(=O)[C@H](C)N[P@](=O)(CO[C@H](C)Cn1cnc2c(N)ncnc21)Oc1ccccc1 [Tenofovir Alafenamide (TAF), Tenofovir Alafenamide, reference compound] | – | IC50 (Homo sapiens, 72 hours): 10 nM
2 | C#C[C@]1(CO)O[C@@H](n2cnc3c(N)ncnc32)C[C@@H]1O [compound 23] | > 50000 | –
3 | C#C[C@]1(CO)O[C@@H](n2cc(C)c(N)nc2=O)C[C@@H]1O [compound 6] | 18600 | –
4 | C#C[C@@]1(CO)C=C[C@H](n2cnc3c(N)nc(F)nc32)O1 [compound 19] | > 12500 | –
5 | O=C1Nc2ccc(Cl)cc2[C@@](C#CC2CC2)(C(F)(F)F)O1 [Efavirenz, reference compound] | > 50000 | –
6 | C#C[C@]1(CO)O[C@@H](n2cnc3c(N)nc(N)nc32)C[C@@H]1O [compound 22] | – | IC50 (72 hours): 23400 nM
7 | CC#C[C@]1(CO)C=C[C@H](n2cc(C)c(=O)[nH]c2=O)O1 [compound 16] | > 25000 | –
8 | Nc1ncnc2c1ncn2CCOCP(=O)(O)O [Adefovir, reference compound] | > 6250 | –
9 | C#C[C@]1(CO)O[C@@H](n2cnc3c(N)nc(N)nc32)C[C@@H]1O [compound 12] | – | IC50 (72 hours): 6.2 nM
10 | Cc1ccnc2c1NC(=O)c1cccnc1N2C1CC1 [Nevirapine, reference compound] | > 50000 | –
11 | C[C@H](Cn1cnc2c(N)ncnc21)OCP(=O)(O)O [Tenofovir, reference compound] | – | IC50 (72 hours): 2700 nM
12 | C=C[C@@]1(CO)C=C[C@H](n2cc(C)c(=O)[nH]c2=O)O1 [compound 18] | 12500 | –
13 | CC[C@]1(CO)O[C@@H](n2cnc3c(N)nc(N)nc32)C[C@@H]1O [compound 27] | – | IC50 (72 hours): 2.6 nM

Second part, led by results:

Row | IC50 (Homo sapiens, HeLa, 72 h) [nM] | SMILES | also measured
14 | 480 | Nc1nc(=O)n([C@@H]2CS[C@H](CO)O2)cc1F [Emtricitabine (FTC), Emtricitabine, reference compound] | –
15 | 530 | O=c1[nH]cnc2c1ncn2[C@H]1CC[C@@H](CO)O1 [Didanosine, reference compound] | –
16 | 70 | C#C[C@@]1(CO)C=C[C@H](n2cc(C)c(=O)[nH]c2=O)O1 [Censavudine, reference compound] | –
17 | 10 | C=C[C@]1(CO)O[C@@H](n2ccc(N)nc2=O)C[C@@H]1O [compound 24] | –
18 | 630 | Cc1cn([C@H]2C[C@H](N=[N+]=[N-])[C@@H](CO)O2)c(=O)[nH]c1=O [AZT, zidovudine, reference compound] | –
19 | 11 | C=C[C@]1(CO)O[C@@H](n2cnc3c(N)nc(F)nc32)C[C@@H]1O [compound 20, (2R,3S,5R)-5-(6-amino-2-fluoro-9H-purin-9-yl)-2-(hydroxymethyl)-2-vinyltetrahydrofuran-3-ol] | –
20 | 910 | C#C[C@@]1(CO)C=C[C@H](n2cc(Br)c(=O)[nH]c2=O)O1 [compound 17] | –
21 | 1450 | C=C1[C@H](CO)[C@@H](O)C[C@@H]1n1cnc2c(=O)[nH]c(N)nc21 [Entecavir, reference compound] | –
22 | 190 | CC(C)OC(=O)OCOP(=O)(CO[C@H](C)Cn1cnc2c(N)ncnc21)OCOC(=O)OC(C)C [Tenofovir Disoproxil, reference compound] | –
23 | 660 | Nc1ccn([C@@H]2CS[C@H](CO)O2)c(=O)n1 [Lamivudine, reference compound] | –
24 | 490 | C#C[C@]1(CO)O[C@@H](n2cc(Br)c(=O)[nH]c2=O)C[C@@H]1O [compound 4] | –
25 | 2050 | CC[C@]1(CO)O[C@@H](n2cc(C)c(=O)[nH]c2=O)C[C@@H]1O [compound 26] | –
26 | 750 | Cc1cn([C@H]2C=C[C@@H](CO)O2)c(=O)[nH]c1=O [Stavudine, reference compound] | –
27 | 6340 | Nc1ccn([C@H]2CO[C@@H](CO)S2)c(=O)n1 [Apricitabine, reference compound] | –
28 | 390 | C#C[C@]1(CO)O[C@@H](n2cc(C)c(=O)[nH]c2=O)C[C@@H]1O [compound 2] | –
29 | 66 | Nc1ccn([C@H]2CC[C@@H](CO)O2)c(=O)n1 [Zalcitabine, reference compound] | –
